# Assay results from publication PMC5218480 (PLoS ONE, 2017).
# Tested on: MV-4-11 cells
# Assay: Gene expression microarray analysis (Affymetrix PrimeView) and GSEA
# Type: cell-based, human
# Set-up: RFU PODN (11730768_x_at) / Fold change /veh PODN (11730768_x_at) / RFU LINC00158 (11744669_a_at) / Fold change /veh LINC00158 (11744669_a_at) / RFU DUSP10 (11751237_a_at) / Fold change /veh DUSP10 (11751237_a_at) / RFU ID3 (11757404_x_at) / Fold change /veh ID3 (11757404_x_at) / RFU PLEKHG5 (11737974_s_at) / Fold change /veh PLEKHG5 (11737974_s_at) / RFU LRRC4B (11730491_at) / Fold change /veh LRRC4B (11730491_at) / RFU GIMAP4 (11747438_a_at) / Fold change /veh GIMAP4 (11747438_a_at) / RFU KRT8 (11758183_x_at) / Fold change /veh KRT8 (11758183_x_at) / RFU CNN1 (11734310_a_at) / Fold change /veh CNN1 (11734310_a_at) / RFU VPS37D (11726825_at) / Fold change /veh VPS37D (11726825_at) / RFU C10orf10 (11716522_x_at) / Fold change /veh C10orf10 (11716522_x_at) / RFU KIR2DL2 /// KIR2DL4 /// KIR2DL5A /// KIR2DL5B /// KIR2DS1 /// KIR2DS2 /// KIR2DS3 /// KIR2DS4 /// KIR3DL3 /// KIR3DL3 /// KIR3DS1 (11738374_at) / Fold change /veh KIR2DL2 /// KIR2DL4 /// KIR2DL5A /// KIR2DL5B /// KIR2DS1 /// KIR2DS2 /// KIR2DS3 /// KIR2DS4 /// KIR3DL3 /// KIR3DL3 /// KIR3DS1 (11738374_at) / RFU C1QL1 (11718748_at) / Fold change /veh C1QL1 (11718748_at) / RFU TMPRSS4 (11747572_a_at) / Fold change /veh TMPRSS4 (11747572_a_at) / RFU HAMP (11756126_x_at) / Fold change /veh HAMP (11756126_x_at) / RFU RNFT2 (11725882_a_at) / Fold change /veh RNFT2 (11725882_a_at) / RFU NR4A2 (11747474_a_at) / Fold change /veh NR4A2 (11747474_a_at) / RFU ABCC12 (11746883_a_at) / Fold change /veh ABCC12 (11746883_a_at) / RFU TMEM136 (11760407_x_at) / Fold change /veh TMEM136 (11760407_x_at) / RFU CLDN22 /// WWC2 (11732394_at) / Fold change /veh CLDN22 /// WWC2 (11732394_at) / RFU HLA-DPB1 (11760878_x_at) / Fold change /veh HLA-DPB1 (11760878_x_at) / RFU SPINT1 (11716480_a_at) / Fold change /veh SPINT1 (11716480_a_at) / RFU GAP43 (11754022_s_at) / Fold change /veh GAP43 (11754022_s_at) / RFU A4GNT (11735810_at) / Fold change /veh A4GNT (11735810_at) / RFU PRB3 (11715151_x_at) / Fold change /veh PRB3 (11715151_x_at) / RFU TUBB4B (11761932_at) / Fold change /veh TUBB4B (11761932_at) / RFU CAPN14 (11732068_a_at) / Fold change /veh CAPN14 (11732068_a_at) / RFU TMCC2 (11721928_a_at) / Fold change /veh TMCC2 (11721928_a_at) / RFU IRGQ (11745062_a_at) / Fold change /veh IRGQ (11745062_a_at) / RFU FAM174B (11720279_a_at) / Fold change /veh FAM174B (11720279_a_at) / RFU TMPRSS4 (11748680_a_at) / Fold change /veh TMPRSS4 (11748680_a_at) / RFU FAM212B (11763350_a_at) / Fold change /veh FAM212B (11763350_a_at) / RFU PLEKHG5 (11743358_a_at) / Fold change /veh PLEKHG5 (11743358_a_at) / RFU ZSCAN30 (11745921_a_at) / Fold change /veh ZSCAN30 (11745921_a_at) / RFU CMKLR1 (11741424_a_at) / Fold change /veh CMKLR1 (11741424_a_at) / RFU LOC101060620 /// MAPK8IP1 (11723275_at) / Fold change /veh LOC101060620 /// MAPK8IP1 (11723275_at) / RFU SPTSSB (11747773_x_at) / Fold change /veh SPTSSB (11747773_x_at) / RFU PRSS12 (11739890_at) / Fold change /veh PRSS12 (11739890_at) / RFU BIN1 (11741810_x_at) / Fold change /veh BIN1 (11741810_x_at) / RFU WNT11 (11732464_a_at) / Fold change /veh WNT11 (11732464_a_at) / RFU C10orf10 (11716521_a_at) / Fold change /veh C10orf10 (11716521_a_at) / RFU C5orf56 (11738089_at) / Fold change /veh C5orf56 (11738089_at) / RFU CYB561 (11721691_x_at) / Fold change /veh CYB561 (11721691_x_at) / RFU ANKRD19P (11752326_a_at) / Fold change /veh ANKRD19P (11752326_a_at) / RFU OR2T12 /// OR2T33 /// OR2T8 (11738714_s_at) / Fold change /veh OR2T12 /// OR2T33 /// OR2T8 (11738714_s_at) / RFU VCAN (11748164_a_at) / Fold change /veh VCAN (11748164_a_at) / RFU JSRP1 (11732532_at) / Fold change /veh JSRP1 (11732532_at) / RFU KRTAP10-11 (11738290_x_at) / Fold change /veh KRTAP10-11 (11738290_x_at) / RFU MYO3A (11730013_a_at) / Fold change /veh MYO3A (11730013_a_at) / RFU EBF3 (11725865_a_at) / Fold change /veh EBF3 (11725865_a_at) / RFU CAMK2N1 (11719241_x_at) / Fold change /veh CAMK2N1 (11719241_x_at) / RFU C5orf56 (11738088_a_at) / Fold change /veh C5orf56 (11738088_a_at) / RFU OLFML3 (11715873_a_at) / Fold change /veh OLFML3 (11715873_a_at) / RFU LOC100653217 /// NTM (11731650_a_at) / Fold change /veh LOC100653217 /// NTM (11731650_a_at) / RFU MAPK11 (11762145_a_at) / Fold change /veh MAPK11 (11762145_a_at) / RFU FIZ1 (11724087_x_at) / Fold change /veh FIZ1 (11724087_x_at) / RFU OASL (11726364_x_at) / Fold change /veh OASL (11726364_x_at) / RFU SOX15 (11748057_x_at) / Fold change /veh SOX15 (11748057_x_at) / RFU CD79A (11719716_a_at) / Fold change /veh CD79A (11719716_a_at) / RFU HIST1H1D (11736915_at) / Fold change /veh HIST1H1D (11736915_at) / RFU CASKIN2 (11723855_a_at) / Fold change /veh CASKIN2 (11723855_a_at) / RFU LOC730098 (11760151_x_at) / Fold change /veh LOC730098 (11760151_x_at) / RFU OR4N2 (11742367_at) / Fold change /veh OR4N2 (11742367_at) / RFU PRRT2 (11749266_a_at) / Fold change /veh PRRT2 (11749266_a_at) / RFU SNX32 (11753110_a_at) / Fold change /veh SNX32 (11753110_a_at) / RFU CDHR5 (11726645_a_at) / Fold change /veh CDHR5 (11726645_a_at) / RFU RCAN1 (11760418_a_at) / Fold change /veh RCAN1 (11760418_a_at) / RFU FAM167A (11723789_a_at) / Fold change /veh FAM167A (11723789_a_at) / RFU FAM26E (11764081_at) / Fold change /veh FAM26E (11764081_at) / RFU ISYNA1 (11749810_s_at) / Fold change /veh ISYNA1 (11749810_s_at) / RFU ACY1 (11761880_at) / Fold change /veh ACY1 (11761880_at) / RFU 11764098_at / Fold change /veh 11764098_at / RFU SAMD14 (11745864_x_at) / Fold change /veh SAMD14 (11745864_x_at) / RFU NPB (11741838_a_at) / Fold change /veh NPB (11741838_a_at) / RFU TMPRSS6 (11731388_a_at) / Fold change /veh TMPRSS6 (11731388_a_at) / RFU KRTAP10-2 (11738614_at) / Fold change /veh KRTAP10-2 (11738614_at) / RFU ARHGAP8 /// PRR5-ARHGAP8 (11727945_x_at) / Fold change /veh ARHGAP8 /// PRR5-ARHGAP8 (11727945_x_at) / RFU KRTAP5-7 /// NADSYN1 (11734609_at) / Fold change /veh KRTAP5-7 /// NADSYN1 (11734609_at) / RFU RASL12 (11751679_a_at) / Fold change /veh RASL12 (11751679_a_at) / RFU CDKN2B (11736163_a_at) / Fold change /veh CDKN2B (11736163_a_at) / RFU PRF1 (11729649_at) / Fold change /veh PRF1 (11729649_at) / RFU, ZNF638 /// ZNF638-IT1 / Fold change vs veh, ZNF638 /// ZNF638-IT1 / RFU, PANK3 / Fold change vs veh, PANK3 / RFU, SH3YL1 / Fold change vs veh, SH3YL1 / RFU, ZEB2 / Fold change vs veh, ZEB2 / RFU, NRIP1 / Fold change vs veh, NRIP1 / RFU, PTTG1IP / Fold change vs veh, PTTG1IP / RFU, CAPN2 / Fold change vs veh, CAPN2 / RFU, MED14 / Fold change vs veh, MED14 / RFU, SNORA58 / Fold change vs veh, SNORA58 / RFU, C1orf63 / Fold change vs veh, C1orf63 / RFU, LRRFIP1 / Fold change vs veh, LRRFIP1 / RFU, NDUFAF7 / Fold change vs veh, NDUFAF7 / RFU, SLC12A2 / Fold change vs veh, SLC12A2 / RFU, IBTK / Fold change vs veh, IBTK / RFU, ESF1 / Fold change vs veh, ESF1 / Fold change vs veh, TMEM50B / RFU, TAOK1 / Fold change vs veh, TAOK1 / RFU, ACBD3 / Fold change vs veh, ACBD3 / RFU, TMA16 / Fold change vs veh, TMA16 / RFU, RWDD3 / Fold change vs veh, RWDD3 / RFU, BCAT1 / Fold change vs veh, BCAT1 / RFU, EDEM3 / Fold change vs veh, EDEM3 / RFU, TMEM33 / Fold change vs veh, TMEM33 / RFU, WDR75 / Fold change vs veh, WDR75 / RFU, AHCTF1 / Fold change vs veh, AHCTF1 / RFU, TFRC / Fold change vs veh, TFRC / RFU, ZDHHC17 / Fold change vs veh, ZDHHC17 / RFU, NOM1 / Fold change vs veh, NOM1 / RFU, ARL8B / Fold change vs veh, ARL8B / RFU, ZBTB11 / Fold change vs veh, ZBTB11 / RFU, TAMM41 / Fold change vs veh, TAMM41 / RFU, KIAA1704 /// LOC100996395 / Fold change vs veh, KIAA1704 /// LOC100996395 / RFU, ING1 / Fold change vs veh, ING1 / RFU, TRMT61B / Fold change vs veh, TRMT61B / RFU, FUBP3 / Fold change vs veh, FUBP3 / RFU, TP53 / Fold change vs veh, TP53 / RFU, TNKS2 / Fold change vs veh, TNKS2 / RFU, ZFP14 / Fold change vs veh, ZFP14 / RFU, ACTR2 / Fold change vs veh, ACTR2 / RFU, PPP3R1 / Fold change vs veh, PPP3R1 / RFU, PIK3R1 / Fold change vs veh, PIK3R1 / RFU, HNRNPA1 / Fold change vs veh, HNRNPA1 / RFU, RNF170 / Fold change vs veh, RNF170 / RFU, ZNF28 / Fold change vs veh, ZNF28 / RFU, RNGTT / Fold change vs veh, RNGTT / RFU, OGT / Fold change vs veh, OGT / RFU, BRD1 / Fold change vs veh, BRD1 / RFU, MARS / Fold change vs veh, MARS / RFU, ZNF655 / Fold change vs veh, ZNF655 / RFU, FAHD1 / Fold change vs veh, FAHD1 / RFU, BDP1 / Fold change vs veh, BDP1 / RFU, LRRCC1 / Fold change vs veh, LRRCC1 / RFU, ARID1A / Fold change vs veh, ARID1A / RFU, ZNF146 / Fold change vs veh, ZNF146 / RFU, ZNF330 / Fold change vs veh, ZNF330 / RFU, GPN3 / Fold change vs veh, GPN3 / RFU, C9orf123 / Fold change vs veh, C9orf123 / RFU, N4BP2L2 / Fold change vs veh, N4BP2L2 / RFU, ARFIP1 / Fold change vs veh, ARFIP1 / RFU, FAM179B / Fold change vs veh, FAM179B / RFU, BCL10 / Fold change vs veh, BCL10 / RFU, UHRF1BP1L / Fold change vs veh, UHRF1BP1L / RFU, BET1 / Fold change vs veh, BET1 / RFU, CNOT2 / Fold change vs veh, CNOT2 / RFU, ZNF268 / Fold change vs veh, ZNF268 / Fold change vs veh, ZNF507 / RFU, DGCR2 / Fold change vs veh, DGCR2 / RFU, WDSUB1 / Fold change vs veh, WDSUB1 / Fold change vs veh, HSP90B1 /// MIR3652 / RFU, ADSS / Fold change vs veh, ADSS / RFU, GK / Fold change vs veh, GK / RFU, ZNF148 / Fold change vs veh, ZNF148 / RFU, TAF9 / Fold change vs veh, TAF9 / RFU, SLC1A5 / Fold change vs veh, SLC1A5 / RFU, SLMO2 / Fold change vs veh, SLMO2 / RFU, ABCC4 / Fold change vs veh, ABCC4 / RFU, LOC101060439 /// RAP1B / Fold change vs veh, LOC101060439 /// RAP1B / RFU, RFX7 / Fold change vs veh, RFX7 / RFU, GTPBP10 / Fold change vs veh, GTPBP10 / RFU, CNEP1R1 / Fold change vs veh, CNEP1R1 / RFU, BIVM-ERCC5 /// ERCC5 / Fold change vs veh, BIVM-ERCC5 /// ERCC5 / RFU, ILF3 / Fold change vs veh, ILF3 / RFU 11762660_at / Fold change /veh 11762660_at / RFU VCAN (11757783_s_at) / Fold change /veh VCAN (11757783_s_at) / RFU DDX43 (11728927_at) / Fold change /veh DDX43 (11728927_at) / RFU KRT8 (11758188_x_at) / Fold change /veh KRT8 (11758188_x_at) / RFU NKD1 (11759106_at) / Fold change /veh NKD1 (11759106_at) / RFU SRD5A1 (11742802_a_at) / Fold change /veh SRD5A1 (11742802_a_at) / RFU TPSAB1 /// TPSB2 (11721975_s_at) / Fold change /veh TPSAB1 /// TPSB2 (11721975_s_at) / RFU GSTM3 (11746129_a_at) / Fold change /veh GSTM3 (11746129_a_at) / RFU IL23R (11737362_x_at) / Fold change /veh IL23R (11737362_x_at) / RFU TMEM51 (11727254_a_at) / Fold change /veh TMEM51 (11727254_a_at) / RFU PIWIL2 (11732686_x_at) / Fold change /veh PIWIL2 (11732686_x_at) / RFU ORM1 (11744905_x_at) / Fold change /veh ORM1 (11744905_x_at) / RFU CCDC152 (11743942_at) / Fold change /veh CCDC152 (11743942_at) / RFU ECM1 (11717891_a_at) / Fold change /veh ECM1 (11717891_a_at) / RFU IL23R (11748794_a_at) / Fold change /veh IL23R (11748794_a_at) / RFU TNFAIP8L3 (11732012_x_at) / Fold change /veh TNFAIP8L3 (11732012_x_at) / RFU MBOAT4 (11741988_at) / Fold change /veh MBOAT4 (11741988_at) / RFU 11764193_at / Fold change /veh 11764193_at / RFU TMEM53 (11763286_at) / Fold change /veh TMEM53 (11763286_at) / RFU MAGEB2 (11727129_at) / Fold change /veh MAGEB2 (11727129_at) / RFU TMEM200A (11744735_a_at) / Fold change /veh TMEM200A (11744735_a_at) / RFU CCDC152 (11751479_a_at) / Fold change /veh CCDC152 (11751479_a_at) / RFU FAM211A (11726209_a_at) / Fold change /veh FAM211A (11726209_a_at) / RFU RGS16 (11746705_a_at) / Fold change /veh RGS16 (11746705_a_at) / RFU VCAN (11755009_s_at) / Fold change /veh VCAN (11755009_s_at) / RFU RHOB (11743442_s_at) / Fold change /veh RHOB (11743442_s_at) / RFU RGS16 (11720943_a_at) / Fold change /veh RGS16 (11720943_a_at) / RFU RGS16 (11720944_at) / Fold change /veh RGS16 (11720944_at) / RFU, VPS4B / Fold change vs veh, VPS4B / RFU, CREB1 / Fold change vs veh, CREB1 / RFU, DNAJC13 / Fold change vs veh, DNAJC13 / RFU, GNAQ / Fold change vs veh, GNAQ / RFU, CDK5R1 / Fold change vs veh, CDK5R1 / RFU, ZRANB3 / Fold change vs veh, ZRANB3 / RFU, CUL4A / Fold change vs veh, CUL4A / RFU, CCNY / Fold change vs veh, CCNY / RFU, UFL1 / Fold change vs veh, UFL1 / RFU, COG3 / Fold change vs veh, COG3 / RFU, DIAPH2 / Fold change vs veh, DIAPH2 / RFU, SKA2 / Fold change vs veh, SKA2 / RFU, AFF3 / Fold change vs veh, AFF3 / RFU, LMF1 / Fold change vs veh, LMF1 / RFU, IPO11 / Fold change vs veh, IPO11 / RFU, DFFB / Fold change vs veh, DFFB / RFU, FOXP1 / Fold change vs veh, FOXP1 / RFU, CARD8 / Fold change vs veh, CARD8 / RFU, STRN3 / Fold change vs veh, STRN3 / RFU, ADK / Fold change vs veh, ADK / RFU, RASSF2 / Fold change vs veh, RASSF2 / RFU, WIPF1 / Fold change vs veh, WIPF1 / RFU, LARP1B / Fold change vs veh, LARP1B / RFU, RASA1 / Fold change vs veh, RASA1 / RFU, RB1 / Fold change vs veh, RB1 / RFU, PPFIA1 / Fold change vs veh, PPFIA1 / RFU, MAT2A / Fold change vs veh, MAT2A / RFU, CCT5 / Fold change vs veh, CCT5 / RFU, WDR92 / Fold change vs veh, WDR92 / RFU, CUX1 / Fold change vs veh, CUX1 / RFU, TTC7A / Fold change vs veh, TTC7A / RFU, TMEM135 / Fold change vs veh, TMEM135 / RFU, DEPTOR / Fold change vs veh, DEPTOR / RFU, CPM / Fold change vs veh, CPM / RFU, DNAJB6 / Fold change vs veh, DNAJB6 / RFU, CACNA2D3 / Fold change vs veh, CACNA2D3 / RFU, DTX4 / Fold change vs veh, DTX4 / RFU, TFCP2 / Fold change vs veh, TFCP2 / RFU, GMCL1 /// GMCL1P1 / Fold change vs veh, GMCL1 /// GMCL1P1 / RFU, AEBP2 / Fold change vs veh, AEBP2 / RFU, SNHG1 /// SNORD22 /// SNORD25 /// SNORD26 /// SNORD27 /// SNORD28 /// SNORD29 /// SNORD31 / Fold change vs veh, SNHG1 /// SNORD22 /// SNORD25 /// SNORD26 /// SNORD27 /// SNORD28 /// SNORD29 /// SNORD31 / Fold change (Aza/veh), C12orf56 (ProbeSet 11735607_a_at) / Fold change (ACY-1035/veh), C12orf56 (ProbeSet 11735607_a_at) / Fold change (Aza/veh), FGFR1OP (ProbeSet 11751329_s_at) / Fold change (ACY-1035/veh), FGFR1OP (ProbeSet 11751329_s_at) / Fold change (Aza/veh), VPS36 (ProbeSet 11739960_a_at) / Fold change (ACY-1035/veh), VPS36 (ProbeSet 11739960_a_at) / RFU SYPL1 (11715823_x_at) / Fold change /veh SYPL1 (11715823_x_at) / RFU IGFBP7 (11715501_s_at) / Fold change /veh IGFBP7 (11715501_s_at) / RFU REEP3 (11722064_at) / Fold change /veh REEP3 (11722064_at) / RFU IGLL1 (11728026_x_at) / Fold change /veh IGLL1 (11728026_x_at): dose or concentration left out as unconfirmed
# Conditions: ProbeSet 11728271_at; LIST B
smiles,measurement,value
Nc1ccc(-c2cccs2)cc1NC(=O)c1ccc2c(c1)cc(C1CC1)n2CCN1CCOCC1 [ACY-1035],"RFU, ZNF330",663.85 RFU
